Twelve molecules from PubChem BioAssay (NCI) can be followed below.

Test systems include CCRF-CEM leukemia; KM12 colon; OVCAR-4 ovarian; RPMI-8226 leukemia; SK-MEL-2 melanoma; SNB-75 CNS; SR leukemia; SW-620 colon; UACC-257 melanoma; MALME-3M melanoma.
Holding throughout (test): DTP human tumour cell line panel, 48 h

Where “and” joins values, the source holds several entries; their conditions need not be identical. Equal values may be shown once.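 Where inhibition never reached the appropriate level, the endpoint shown equals the highest concentration tested. Otherwise, values were interpolated linearly from a five-concentration, 48-hour dose response in 96-well plates. GI50: concentration for 50% inhibition of growth. TGI is the concentration that stops growth completely.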

In general, TGI refers to the concentration giving total growth inhibition. Low values mean more potent growth arrest, high ones less potent growth arrest. As to `CN1C(=O)[C@@]2(C=CC3(CC2)OCCO3)c2ccccc21`, the TGI in the assay on CCRF-CEM leukemia was above 50 µM; in the assay with KM12 colon, above 50 µM; in the assay with OVCAR-4 ovarian, above 50 µM; in the assay with RPMI-8226 leukemia it was above 50 µM; in the assay on SK-MEL-2 melanoma, above 50 µM; with SNB-75 CNS, 49.5 µM. In addition, the TGI with SR leukemia, in the assay on SW-620 colon and with UACC-257 melanoma was above 50 µM each time.
As for `COc1ccc(C[C@H]2COC(=O)[C@@H]2Cc2cc(OC)c(OC)c(OC)c2)cc1OC`, the TGI in the assay with CCRF-CEM leukemia, in the assay on KM12 colon, with MALME-3M melanoma, in the assay with OVCAR-4 ovarian, in the assay on RPMI-8226 leukemia and in the assay with SK-MEL-2 melanoma was above 100 µM each time. Further, the TGI in the assay with SNB-75 CNS, in the assay with SR leukemia, in the assay with SW-620 colon and with UACC-257 melanoma was above 100 µM in each case.
The term GI50 denotes the concentration giving 50% growth inhibition. Consider `COc1ccc(CC2C(=O)NC(C)C(=O)N(C)C3Cc4ccc(cc4)Oc4cc(ccc4O)CC(C(=O)NC(C)C(=O)NC(C)C(=O)N2C)N(C)C3=O)cc1` (configuration not stated), for which the GI50 with CCRF-CEM leukemia, in the assay with KM12 colon, with MALME-3M melanoma, in the assay with OVCAR-4 ovarian, in the assay with RPMI-8226 leukemia and in the assay on SK-MEL-2 melanoma was below 0.0001 µM throughout. Besides, the GI50 with SNB-75 CNS was below 0.0001 µM; in the assay on SW-620 colon, 0.000157 µM; with UACC-257 melanoma, below 0.0001 µM. In addition, the TGI is 0.122 µM in the assay on CCRF-CEM leukemia; 0.127 µM with KM12 colon; 0.523 µM and 0.131 µM and 0.088 µM in the assay with OVCAR-4 ovarian; 0.0327 µM and 0.0179 µM in the assay with RPMI-8226 leukemia; 0.0214 µM with SNB-75 CNS; 0.112 µM in the assay on SR leukemia.
`C=CCN1C(=O)/C(=C/c2ccc(Cl)cc2)N=C1SC1OC(COC(C)=O)C(OC(C)=O)C(OC(C)=O)C1OC(C)=O` (configuration not stated): the total growth inhibition concentration (TGI) is above 100 µM in the assay on CCRF-CEM leukemia; above 100 µM in the assay on KM12 colon; 15 µM and > 100 µM in the assay on MALME-3M melanoma; 28.2 µM and 67.1 µM in the assay with OVCAR-4 ovarian; > 100 µM and 46.8 µM in the assay on RPMI-8226 leukemia; 34.6 µM and 95.8 µM with SK-MEL-2 melanoma. The TGI is 13.8 µM and 81.5 µM in the assay with SNB-75 CNS; > 100 µM and 36.6 µM with SR leukemia; above 100 µM in the assay with SW-620 colon; 45.2 µM and 74.4 µM in the assay with UACC-257 melanoma. Besides, the GI50 is 4.14 µM and 16.7 µM in the assay on OVCAR-4 ovarian; 11.2 µM and 5.19 µM with RPMI-8226 leukemia; 12.6 µM and 30.1 µM in the assay with SK-MEL-2 melanoma; 4.11 µM and 25.9 µM with SNB-75 CNS; > 59.6 µM and 11.1 µM with SW-620 colon.
For the molecule `CCOC(=O)C(Cc1c(-c2[nH]c3ccccc3c2CC(NC(=O)CNC(C)=O)C(=O)OCC)[nH]c2ccccc12)NC(=O)CNC(C)=O` (configuration not stated), the TGI with CCRF-CEM leukemia is above 100 µM; in the assay with KM12 colon it was above 100 µM; in the assay on MALME-3M melanoma, 38.2 µM; in the assay with OVCAR-4 ovarian, above 100 µM; in the assay with RPMI-8226 leukemia, above 100 µM; in the assay on SK-MEL-2 melanoma it was 39.9 µM. Moreover, the total growth inhibition concentration (TGI) is 93.6 µM with SNB-75 CNS, above 100 µM in the assay with SR leukemia, above 100 µM in the assay on SW-620 colon and 73.5 µM in the assay on UACC-257 melanoma.
For `CCN(CC)c1ccc(C(=C2C=CC(=[N+](CC)CC)C=C2)c2ccccc2)cc1`, the TGI amounted to 0.0401 µM with CCRF-CEM leukemia; 0.124 µM with KM12 colon; 0.0902 µM in the assay with MALME-3M melanoma; 0.488 µM in the assay with OVCAR-4 ovarian; 0.0683 µM with RPMI-8226 leukemia; 0.0889 µM in the assay with SK-MEL-2 melanoma. The TGI is 1.25 µM in the assay with SNB-75 CNS, 0.0791 µM in the assay with SR leukemia, 0.138 µM in the assay with SW-620 colon and 0.18 µM in the assay on UACC-257 melanoma.
On to `COC1(OC)/C(=C(\N)C=O)NC(C)(C)N1O`, for which the TGI with CCRF-CEM leukemia, in the assay on KM12 colon, in the assay with MALME-3M melanoma, in the assay on OVCAR-4 ovarian, in the assay with RPMI-8226 leukemia and in the assay with SK-MEL-2 melanoma was above 100 µM throughout. Also, the TGI with SNB-75 CNS, in the assay on SR leukemia, with SW-620 colon and with UACC-257 melanoma was above 100 µM each time.
In the case of `CCOc1cc(C=O)ccc1O`, the TGI with KM12 colon, with MALME-3M melanoma, in the assay with OVCAR-4 ovarian, in the assay with RPMI-8226 leukemia, in the assay with SK-MEL-2 melanoma and with SNB-75 CNS was above 100 µM each time. The TGI in the assay with SR leukemia, with SW-620 colon and with UACC-257 melanoma was above 100 µM each time.
With `COc1cc(C2S/C(=C/c3ccccc3)C(=O)N2c2ccc(Cl)cc2)cc(OC)c1OC` (configuration not stated), the TGI in the assay on CCRF-CEM leukemia is above 100 µM; with KM12 colon it was above 100 µM; in the assay on MALME-3M melanoma, 87.2 µM; in the assay with OVCAR-4 ovarian, above 100 µM; in the assay on RPMI-8226 leukemia it was above 100 µM; with SK-MEL-2 melanoma it was above 30.2 µM. In addition, the TGI in the assay on SNB-75 CNS was above 79.9 µM; in the assay with SR leukemia it was above 100 µM; with SW-620 colon it was above 100 µM; with UACC-257 melanoma, above 100 µM.
As for `CC1=CC(c2ccccc2)n2c(nc3cc4ccccc4cc32)N1` (configuration not stated), the TGI in the assay with CCRF-CEM leukemia, with KM12 colon, in the assay with MALME-3M melanoma, in the assay on OVCAR-4 ovarian, in the assay on RPMI-8226 leukemia and in the assay on SK-MEL-2 melanoma was above 100 µM each time. The TGI in the assay on SNB-75 CNS, with SR leukemia, with SW-620 colon and with UACC-257 melanoma was above 100 µM in each case.
Regarding `c1csc(-c2ccc(-c3ccc(-c4cccs4)s3)s2)c1`, the TGI in the assay on KM12 colon, in the assay with MALME-3M melanoma, in the assay with OVCAR-4 ovarian, in the assay on RPMI-8226 leukemia, with SK-MEL-2 melanoma and with SNB-75 CNS was above 100 µM each time. The TGI in the assay with SR leukemia, in the assay with SW-620 colon and in the assay on UACC-257 melanoma was above 100 µM in each case.
As to `COc1ccc([C@@]23CCC(=O)C[C@@H]2N(C)CC3)cc1OC`, the TGI in the assay on CCRF-CEM leukemia, with KM12 colon, in the assay with MALME-3M melanoma, in the assay with OVCAR-4 ovarian, in the assay on RPMI-8226 leukemia and with SK-MEL-2 melanoma was above 100 µM each time. The TGI with SNB-75 CNS, in the assay with SR leukemia, in the assay on SW-620 colon and in the assay with UACC-257 melanoma was above 100 µM throughout.
